In ChEMBL document CHEMBL5465560, “Selectivity Literature for EUbOPEN Chemogenomic Library” (2024):

Columns and labels:
[1] = target: T1, Histone-lysine N-methyltransferase SETD7 (Homo sapiens) (UniProt Q8WTS6); assay: Selectivity interaction (Methyltransferase screen (radiometric assays, panel of 8 PRMTs, 21 protein lysine methyltransferases, 3 DNA methyltransferases, and one RNA methyltransferase)) EUB0000272b SETD7
T1 sequence (whole entry): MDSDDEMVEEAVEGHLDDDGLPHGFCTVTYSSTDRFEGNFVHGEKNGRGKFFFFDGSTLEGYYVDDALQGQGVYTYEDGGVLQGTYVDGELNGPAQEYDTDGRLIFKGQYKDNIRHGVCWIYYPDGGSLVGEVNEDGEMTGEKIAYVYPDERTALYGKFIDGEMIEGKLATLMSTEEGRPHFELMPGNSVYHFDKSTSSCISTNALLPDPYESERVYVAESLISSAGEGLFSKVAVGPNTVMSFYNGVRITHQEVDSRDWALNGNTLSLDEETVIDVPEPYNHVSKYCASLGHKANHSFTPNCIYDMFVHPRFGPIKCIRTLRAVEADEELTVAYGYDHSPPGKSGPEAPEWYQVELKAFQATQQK

[2] = target: CDK9/cyclin T1 (Homo sapiens) (UniProt O60563+P50750); assay: Selectivity interaction (Upstate Kinase Profiler service (Millipore)) EUB0000056c CDK9; format: protein-complex assay; details: at 1 µM
[3] = target: T2, Protein kinase C epsilon type (Homo sapiens) (UniProt Q02156); assay: Selectivity interaction (KinomeScan (DiscoverX)) EUB0000655a PRKCE; details: at 10 µM
T2 sequence (whole entry): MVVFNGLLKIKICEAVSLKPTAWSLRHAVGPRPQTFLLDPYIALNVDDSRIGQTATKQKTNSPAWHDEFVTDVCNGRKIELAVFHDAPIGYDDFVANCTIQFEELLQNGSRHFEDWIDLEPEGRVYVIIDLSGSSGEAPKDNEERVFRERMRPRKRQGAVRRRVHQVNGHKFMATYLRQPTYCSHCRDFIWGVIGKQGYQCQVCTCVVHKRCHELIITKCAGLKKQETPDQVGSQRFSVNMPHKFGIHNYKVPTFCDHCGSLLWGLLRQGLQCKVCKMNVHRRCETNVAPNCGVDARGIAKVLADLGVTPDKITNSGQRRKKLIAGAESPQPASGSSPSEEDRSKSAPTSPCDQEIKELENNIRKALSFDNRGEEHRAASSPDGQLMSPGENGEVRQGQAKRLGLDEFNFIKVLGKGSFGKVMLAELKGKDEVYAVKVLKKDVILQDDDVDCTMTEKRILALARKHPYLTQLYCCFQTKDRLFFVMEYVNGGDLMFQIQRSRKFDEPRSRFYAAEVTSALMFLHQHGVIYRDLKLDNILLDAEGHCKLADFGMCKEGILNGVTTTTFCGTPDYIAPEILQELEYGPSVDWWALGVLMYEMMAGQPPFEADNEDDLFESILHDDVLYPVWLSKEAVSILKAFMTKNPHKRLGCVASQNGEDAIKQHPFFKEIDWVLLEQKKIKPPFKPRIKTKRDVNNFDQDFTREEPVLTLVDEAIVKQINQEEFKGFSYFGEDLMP

[4] = target: High affinity nerve growth factor receptor (Homo sapiens, UniProt P04629); assay: Selectivity interaction (ProQinase) EUB0000171b NTRK1
Chain of High affinity nerve growth factor receptor (P04629 33-796 limits assumed): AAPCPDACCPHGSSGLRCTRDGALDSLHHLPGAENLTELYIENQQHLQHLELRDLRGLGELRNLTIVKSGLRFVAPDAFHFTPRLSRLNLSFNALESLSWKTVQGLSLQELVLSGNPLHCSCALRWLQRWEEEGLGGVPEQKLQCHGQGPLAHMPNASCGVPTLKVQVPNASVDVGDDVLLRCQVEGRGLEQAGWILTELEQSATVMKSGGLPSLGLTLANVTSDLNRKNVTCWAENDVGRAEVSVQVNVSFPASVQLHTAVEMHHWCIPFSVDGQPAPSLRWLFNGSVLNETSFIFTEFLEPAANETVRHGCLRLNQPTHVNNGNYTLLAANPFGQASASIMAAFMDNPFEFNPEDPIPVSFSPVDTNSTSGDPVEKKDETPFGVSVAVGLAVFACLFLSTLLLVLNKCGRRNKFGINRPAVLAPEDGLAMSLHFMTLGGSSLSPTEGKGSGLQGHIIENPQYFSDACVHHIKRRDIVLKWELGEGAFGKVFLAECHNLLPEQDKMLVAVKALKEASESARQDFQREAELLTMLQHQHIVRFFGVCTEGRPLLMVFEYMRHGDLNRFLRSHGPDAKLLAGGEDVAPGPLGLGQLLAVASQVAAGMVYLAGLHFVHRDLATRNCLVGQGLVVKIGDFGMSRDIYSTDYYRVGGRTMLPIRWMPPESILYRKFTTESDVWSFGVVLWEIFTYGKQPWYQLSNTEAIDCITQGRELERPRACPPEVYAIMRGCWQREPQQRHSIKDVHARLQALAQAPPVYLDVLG

[5] = target: T3, Rhodopsin kinase GRK1 (Homo sapiens) (UniProt Q15835); assay: Selectivity interaction (KinomeScan (DiscoverX)) EUB0001079a GRK1; details: at 1 µM
T3 sequence (whole entry): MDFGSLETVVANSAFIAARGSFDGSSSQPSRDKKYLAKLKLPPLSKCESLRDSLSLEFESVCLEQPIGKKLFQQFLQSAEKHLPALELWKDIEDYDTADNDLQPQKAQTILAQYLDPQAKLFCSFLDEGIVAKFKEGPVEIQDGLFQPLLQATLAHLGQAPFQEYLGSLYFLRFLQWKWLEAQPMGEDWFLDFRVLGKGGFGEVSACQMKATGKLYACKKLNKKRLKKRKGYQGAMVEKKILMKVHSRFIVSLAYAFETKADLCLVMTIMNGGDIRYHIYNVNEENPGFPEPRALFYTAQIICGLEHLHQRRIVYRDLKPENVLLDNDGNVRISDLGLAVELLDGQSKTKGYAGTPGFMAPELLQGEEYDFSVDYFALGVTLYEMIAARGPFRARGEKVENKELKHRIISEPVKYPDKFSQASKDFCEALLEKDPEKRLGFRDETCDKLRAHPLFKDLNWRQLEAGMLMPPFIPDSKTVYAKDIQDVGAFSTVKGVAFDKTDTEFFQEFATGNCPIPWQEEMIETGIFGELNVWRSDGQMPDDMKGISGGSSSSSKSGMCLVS

[6] = target: T4, Phosphatidylinositol 5-phosphate 4-kinase type-2 gamma (Homo sapiens) (UniProt Q8TBX8); details: at 10 µM
T4 sequence (whole entry): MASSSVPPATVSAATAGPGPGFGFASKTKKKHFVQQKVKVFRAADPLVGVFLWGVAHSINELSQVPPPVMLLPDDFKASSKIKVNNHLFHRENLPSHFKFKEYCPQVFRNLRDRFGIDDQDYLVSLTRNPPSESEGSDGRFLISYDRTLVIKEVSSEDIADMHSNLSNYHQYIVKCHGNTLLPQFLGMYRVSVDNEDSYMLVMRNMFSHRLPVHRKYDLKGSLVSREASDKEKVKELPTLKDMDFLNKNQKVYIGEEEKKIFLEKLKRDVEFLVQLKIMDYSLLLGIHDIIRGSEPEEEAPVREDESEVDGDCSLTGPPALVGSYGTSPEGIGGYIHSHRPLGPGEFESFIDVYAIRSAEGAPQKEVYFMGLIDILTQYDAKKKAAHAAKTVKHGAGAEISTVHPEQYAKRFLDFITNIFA

[7] = target: Casein kinase I isoform gamma-1 (Homo sapiens) (UniProt Q9HCP0); assay: Selectivity interaction (Kinase panel (Z-LYTE Assay)) EUB0001632a CSNK1G1; details: at 10 µM
Chain of Casein kinase I isoform gamma-1 (Homo sapiens) (Q9HCP0 whole entry, looked up, canonical isoform): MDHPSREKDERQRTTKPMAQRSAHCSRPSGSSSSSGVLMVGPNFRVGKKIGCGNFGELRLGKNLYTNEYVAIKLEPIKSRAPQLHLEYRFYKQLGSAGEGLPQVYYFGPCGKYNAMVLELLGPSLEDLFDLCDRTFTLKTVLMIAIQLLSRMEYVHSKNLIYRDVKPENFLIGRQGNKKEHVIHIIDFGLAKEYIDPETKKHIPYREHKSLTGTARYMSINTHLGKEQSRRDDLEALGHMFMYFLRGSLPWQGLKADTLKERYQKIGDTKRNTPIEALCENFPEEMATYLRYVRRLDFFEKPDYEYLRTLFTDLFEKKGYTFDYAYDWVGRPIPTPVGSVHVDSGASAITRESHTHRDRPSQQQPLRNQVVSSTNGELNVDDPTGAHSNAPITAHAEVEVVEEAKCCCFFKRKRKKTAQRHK

[8] = target: Serine/threonine-protein kinase 38-like (Homo sapiens) (UniProt Q9Y2H1); assay: Selectivity interaction (ActivX KiNativ screen (kinase selectivity in THP-1 cell lysates)) EUB0000639a STK38L; format: subcellular; details: lysate, at 5 µM
Chain of Serine/threonine-protein kinase 38-like (Homo sapiens) (Q9Y2H1 2-464 limits assumed): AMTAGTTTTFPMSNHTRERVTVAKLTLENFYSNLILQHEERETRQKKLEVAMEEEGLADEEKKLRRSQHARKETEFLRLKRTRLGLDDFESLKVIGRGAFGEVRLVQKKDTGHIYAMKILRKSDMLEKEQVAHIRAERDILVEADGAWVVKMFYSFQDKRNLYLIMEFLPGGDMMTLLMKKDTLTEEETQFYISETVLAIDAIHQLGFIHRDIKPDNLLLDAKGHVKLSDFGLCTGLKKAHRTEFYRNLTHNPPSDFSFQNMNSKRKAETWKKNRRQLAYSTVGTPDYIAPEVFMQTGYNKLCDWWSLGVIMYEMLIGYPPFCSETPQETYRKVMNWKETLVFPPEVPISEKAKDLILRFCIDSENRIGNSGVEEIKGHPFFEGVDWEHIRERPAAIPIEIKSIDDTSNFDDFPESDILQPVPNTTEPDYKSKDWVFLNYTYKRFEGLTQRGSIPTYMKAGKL

[9] = target: Casein kinase I isoform gamma-3 (Homo sapiens) (UniProt Q9Y6M4); assay: Selectivity interaction (SelectScreen profiling (Invitrogen)) EUB0000607a CSNK1G3; details: at 2 µM
Chain of Casein kinase I isoform gamma-3 (Homo sapiens) (Q9Y6M4 whole entry, looked up, canonical isoform): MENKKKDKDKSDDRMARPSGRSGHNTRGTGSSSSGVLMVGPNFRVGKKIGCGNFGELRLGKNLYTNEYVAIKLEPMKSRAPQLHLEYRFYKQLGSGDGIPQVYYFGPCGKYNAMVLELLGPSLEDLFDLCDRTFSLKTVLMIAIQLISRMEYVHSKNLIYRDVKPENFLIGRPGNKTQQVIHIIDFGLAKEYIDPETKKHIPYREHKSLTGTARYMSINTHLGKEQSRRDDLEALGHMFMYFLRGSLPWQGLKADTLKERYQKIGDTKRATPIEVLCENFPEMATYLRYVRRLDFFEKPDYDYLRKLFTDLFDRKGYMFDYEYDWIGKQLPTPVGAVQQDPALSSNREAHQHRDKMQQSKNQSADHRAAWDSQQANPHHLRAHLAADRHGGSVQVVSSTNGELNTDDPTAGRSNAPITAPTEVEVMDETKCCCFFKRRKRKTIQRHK

[10] = target: Calcium/calmodulin-dependent protein kinase kinase 2 (Homo sapiens) (UniProt Q96RR4); assay: Selectivity interaction (KinomeScan (DiscoverX)) EUB0000045b CAMKK2
Chain of Calcium/calmodulin-dependent protein kinase kinase 2 (Homo sapiens) (Q96RR4 2-588 limits assumed): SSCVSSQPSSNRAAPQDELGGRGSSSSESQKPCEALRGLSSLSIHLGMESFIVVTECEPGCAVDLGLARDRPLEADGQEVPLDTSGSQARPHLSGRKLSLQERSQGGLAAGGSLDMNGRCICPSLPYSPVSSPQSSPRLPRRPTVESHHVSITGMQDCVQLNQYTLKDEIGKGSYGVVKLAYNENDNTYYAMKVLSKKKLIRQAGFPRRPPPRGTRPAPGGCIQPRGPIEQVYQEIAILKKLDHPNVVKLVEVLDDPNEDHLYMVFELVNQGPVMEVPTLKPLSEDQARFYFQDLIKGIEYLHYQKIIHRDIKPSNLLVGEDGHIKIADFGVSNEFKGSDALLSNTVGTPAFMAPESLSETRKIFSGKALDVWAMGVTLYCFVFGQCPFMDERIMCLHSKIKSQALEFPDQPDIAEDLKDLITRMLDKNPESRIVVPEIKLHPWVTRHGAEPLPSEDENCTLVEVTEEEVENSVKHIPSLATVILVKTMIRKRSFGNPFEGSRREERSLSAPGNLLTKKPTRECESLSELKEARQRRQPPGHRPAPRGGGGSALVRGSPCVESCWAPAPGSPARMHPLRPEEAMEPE

[11] = target: Mitogen-activated protein kinase kinase kinase kinase 5 (Homo sapiens) (UniProt Q9Y4K4); assay: Selectivity interaction (Ambit KINOMEscan and KiNATiv profiling in Jurkat cells) EUB0000090b MAP4K5; format: cell-based; details: at 1 µM
Chain of Mitogen-activated protein kinase kinase kinase kinase 5 (Homo sapiens) (Q9Y4K4 whole entry, looked up): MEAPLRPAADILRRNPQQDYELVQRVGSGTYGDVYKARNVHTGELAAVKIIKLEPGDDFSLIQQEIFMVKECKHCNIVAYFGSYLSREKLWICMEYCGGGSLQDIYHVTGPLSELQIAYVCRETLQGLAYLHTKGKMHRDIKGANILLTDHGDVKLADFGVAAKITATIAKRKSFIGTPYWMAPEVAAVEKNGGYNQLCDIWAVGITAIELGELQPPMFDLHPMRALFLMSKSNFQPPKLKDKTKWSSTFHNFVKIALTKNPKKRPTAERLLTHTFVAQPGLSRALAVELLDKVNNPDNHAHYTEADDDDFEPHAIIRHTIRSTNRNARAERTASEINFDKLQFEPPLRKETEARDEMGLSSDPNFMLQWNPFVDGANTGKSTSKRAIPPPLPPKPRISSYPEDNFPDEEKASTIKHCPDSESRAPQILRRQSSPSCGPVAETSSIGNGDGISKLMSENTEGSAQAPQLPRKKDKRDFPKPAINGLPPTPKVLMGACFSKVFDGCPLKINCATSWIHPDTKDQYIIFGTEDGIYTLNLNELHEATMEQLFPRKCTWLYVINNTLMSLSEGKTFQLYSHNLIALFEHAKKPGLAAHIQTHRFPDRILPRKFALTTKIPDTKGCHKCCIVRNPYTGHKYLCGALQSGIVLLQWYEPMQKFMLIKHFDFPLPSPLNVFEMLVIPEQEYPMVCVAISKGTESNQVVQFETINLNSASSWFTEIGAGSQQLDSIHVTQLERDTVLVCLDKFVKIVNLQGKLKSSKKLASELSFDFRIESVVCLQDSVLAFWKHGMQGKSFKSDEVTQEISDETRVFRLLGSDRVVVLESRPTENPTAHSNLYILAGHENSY

`Cc1cc(C)cc([C@H]2c3cc(C)ccc3NC(=O)CN2C(=O)c2ccc(Br)s2)c1` was tested, and the % of activity ([1]; at 1 µM) was 101% and the % of activity ([1]; at 10 µM) was 99%.
`Cc1ccc(-c2ccc3c(ccc4sc5c(c43)NC[C@@H](C)NC5=O)n2)cn1` gave a % of inhibition [2] of 41%.
`CN(C)CCOc1ccc(-c2nc(-c3ccncc3)c(-c3ccc4c(c3)CC/C4=N\O)[nH]2)cc1` was tested, and the % of control [3] was 100%.
`C=CC(=O)Nc1cccc(C(=O)Nc2ccc(Nc3cc(-c4[nH]c(SC)nc4C)ccn3)cc2)c1` showed a % of control ([4]; at 1 µM) of 81% and a % of control ([4]; at 5 µM) of 58%.
`Nc1cnc(N2CCc3cc(S(=O)(=O)Nc4c(F)cc(Cl)cc4F)cc(N4CCCC4=O)c32)nc1` [TP-020n] showed a % of control [5] of 100%.
With `Cc1cc([C@@H](C)Nc2ccccc2C(=O)O)c2nc(N3CCOCC3)cc(=O)n2c1` [AZD-6482] the % of control [6] was 58%.
With `Cn1cc(-n2cnc3c(NCc4nc5cc(Cl)c(Cl)cc5[nH]4)nc(N4CCOCC4)nc32)cn1` the % of control [7] was 12.7%.
Compound `CC[C@@H]1[C@H](F)C(=O)N[C@@H]1COc1nccc2cc(C(N)=O)c(OC)cc12` [ZIMLOVISERTIB] has a % of inhibition [8] of 77.4%.
`CNC(=O)Nc1ccc(-c2nc(N3CC4CCC(C3)O4)c3cnn(C4CCC5(CC4)OCCO5)c3n2)cc1` showed a % of inhibition [9] of -1%.
With `C=CC(=O)Nc1cc(-n2c(=O)ccc3cnc4ccc(-c5ccc(NS(C)(=O)=O)cc5)cc4c32)ccc1C` the % of control ([10]; at 1 µM) was 100% and the % of control ([10]; at 10 µM) was 92%.
Work on `CN(C)C/C=C/C(=O)Nc1ccc(C(=O)N2CCCC(Nc3ncc(Cl)c(-c4c[nH]c5ccccc45)n3)C2)cc1` (centres undefined) yielded a % of control [11] of 81%.
